Patent publication US20020001652A1, “Process for making granulated N-[N- (3, 3-dimethylbutyl) -L-alpha -aspartyl] -L- phenylalanine 1-methyl ester” (priority 2000, published 2002)

Assays:
[1] = bulk density (loose), cup of known volume; format: physicochemical; conditions: Example 2; granulation through 20 mesh, retained on 60 mesh, versus initial powder
Description: In particular, bulk density (loose) was measured using a cup of known volume. The cup was filled with sample, excess was removed and the sample was weighed.

[2] = HPLC analysis of neotame degradation during granulation; format: physicochemical; conditions: roller compaction, cone mill, sieving
Text: A lab scale TF-Mini roller compactor (Vector Corp., Marion, Iowa) was used in conjunction with a cone mill and a Ro-Tap testing sieve shaker (model B, CE Tyler Combustion Engineering, Inc., Mentor, Ohio) for testing and producing granulated neotame. The neotame powder flowed well into the feed hopper. […] The energy consumption of the rolls and feed screw were within the desired limits. The flakes were broken down into granular particles using a cone mill. The granulation was sieved to obtain a particle size that passed through 20 mesh and was retained on 60 mesh.

- bulk density [1]: 0.4 g/cc
- degradation of neotame during granulation process [2]: no degradation
SMILES: COC(=O)[C@H](Cc1ccccc1)NC(=O)[C@H](CC(=O)O)NCCC(C)(C)C [neotame, N-[N-(3,3-dimethylbutyl)-L-α-aspartyl]-L-phenylalanine 1-methyl ester]
